According to patent US11492354B2, “Indazole compounds and uses thereof” (Incyte Corporation, priority 2018, dated 2022):

Molecular target: HPK1 (Homo sapiens (Human), UniProt Q92918)
Assay: HPK1 Kinase Binding Assay
Details: LanthaScreen tracer 222 binding, active HPK1, 1 h at 25° C.
Protocol: A stock solution of 1 mM test compound was prepared in DMSO. The compound plate was prepared by 3-fold and 11-point serial dilutions. 0.1 μL of the compound in DMSO was transferred from the compound plate to the white 384 well polystyrene plates. The assay buffer contained 50 mM HEPES, pH 7.5, 0.01% Tween-20, 5 mM MgCl2, 0.01% BSA, and 5 mM DTT. 5 μL of 4 nM active HPK1 (SignalChem M23-11G) prepared in the buffer was added to the plate. The enzyme concentration given was based on the given stock concentration reported by the vender. […] After one hour incubation at 25° C., the plates were read on a PHERAstar FS plate reader (BMG Labtech). Ki values were determined.

Chain of HPK1 (Q92918 1-346 limits assumed): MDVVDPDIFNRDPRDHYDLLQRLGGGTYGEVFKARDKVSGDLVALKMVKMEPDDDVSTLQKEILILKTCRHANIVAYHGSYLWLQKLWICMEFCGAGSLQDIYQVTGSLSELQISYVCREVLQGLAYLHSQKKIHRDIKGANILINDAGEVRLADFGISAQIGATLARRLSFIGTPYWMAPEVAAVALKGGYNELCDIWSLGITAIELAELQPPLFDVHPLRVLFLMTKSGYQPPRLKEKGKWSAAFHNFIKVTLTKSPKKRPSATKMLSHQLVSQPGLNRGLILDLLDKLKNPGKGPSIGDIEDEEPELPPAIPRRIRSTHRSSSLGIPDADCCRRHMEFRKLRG

- Ki: < 100 nM
Compound: COc1cccc(F)c1-c1nccc(C(=O)Nc2cc(F)c3nn(C)cc3c2N2CCC[C@@H]2CN)n1 (single isomer, unassigned; peak 1) [10, Peak 1]
